Measured values: patent US9598441B2, “Therapeutic compounds and methods” (Wayne State University, priority 2011, dated 2017)

Legend:
cell cycle progression = test: Flow-cytometric cell cycle analysis (propidium iodide); type: cell-based
Experimental: FIGS. 5A-5D: CFM-4 suppresses cell growth in part by elevating CARP-1 and diminishing cyclin B1 levels. In panel A, cells were treated with indicated agents for noted times, labeled with propidium iodide, and sorted by flow cytometry. Histogram and table below represent cell numbers in various phases of cell cycle. In panel B, cells were treated with indicated dose of CFM-4 for noted times, in panel C, cells were either untreated (−) or treated (+) with CFM-4 for noted dose and time, while in panel D, cells were either treated with vehicle control (DMSO) or with indicated agents for noted dose and time. The cell lysates (50 μg/lane) in panels B-D were analyzed by WB for levels of CARP-1, Cyclin B1, Cdh1, APC-2, CDKIs p21^WAF1/CIP1, p27^KIP1 and actin proteins as in methods.
CARP-1 is required for CFM-4-dependent cell growth inhibition. Because APC/C E3 ubiquitin ligase functions to regulate cell cycle and CFM-4 binds with CARP-1 to inhibit its binding with APC-2, it was next determined whether the SMIs interfere with cell cycle progression. […] The APC/C^Cdc20 E3 ubiquitin ligase regulates turnover of the mitotic cyclin B1 and Cdc20 during the G2M phase and exit to mitosis while APC/C^Cdh1 E3 ligase targets Cdc20 as well as SCF ligase to accomplish exit from mitosis and transition to G0/G1 phases. Attenuation of SCF ligase by APC/C^Cdh1, in turn, results in elevated levels of CDKIs p21^WAF1/CIP1 and p27^KIP1. […] To investigate this possibility it was determined whether CFM-4 binding with CARP-1 modulated CARP-1 levels. […] Levels of both the p21^WAF1/CIP1 and p27^KIP1 CDKIs were elevated when cells were exposed to CFM-4 for 0.5-1.0 h time periods (FIG. 5B). This may likely be due to the initial response of the cells to stress following exposure to CFM-4. […] This loss of CDKI expression could be due to attenuation of APC/C^Cdh1 activity following modest reduction in the Cdh1 levels as well as inability of CARP-1 to bind with APC-2 over prolonged periods of treatments with CFM-4. […]

apoptosis of HBC cells = test: ELISA-based DNA fragmentation apoptosis assay; type: cell-based, human
Experimental: For apoptosis ELISA assay, 4−5×10^2 cells were seeded in 96-well plates and treated essentially as indicated in the MTT assay above. Untreated as well as treated cells were lysed, and levels of mono and oligo-nucleosomal DNA fragments in the lysates were determined by measuring optical density of each sample at 405 nm and 495 nm wavelengths. […] For TUNEL labeling, the cells were treated with various agents, fixed, labeled and photographed essentially as detailed in immuno-localization protocols described before (Zhang, L., Levi, E., Majumder, P., Yu, Y., Aboukameel, A., Du, J., Xu, H., Mohammad, R. M., Hatfield, J. S., Wali, A., Adsay, V., Majumdar, A. P. N., and Rishi, A. K. (2007) Mol. Cancer. Ther. 6(5), 1661-1672). […] Cell lysates derived from vehicle DMSO (Control) or CFM-4-treated cells were added to the wells that had immobilized fluorogenic caspase-3, caspase-8, caspase-9, or caspase-2 substrates. The fluorescence released from the activated caspase-dependent cleavage of respective substrate was detected by a plate reader at the excitation and emission wavelengths of 380 nm and 460 nm, respectively.
CFM-4 suppresses cell growth in part by inducing apoptosis: In light of the data in FIG. 5A showing significant accumulation of CFM-4-treated cells in the sub G0 phase, and the fact that cells undergoing apoptosis often accumulate in the sub G0 fractions, it was next ascertained the extent of apoptosis stimulation by these agents by utilizing an ELISA-based DNA fragmentation assay. […] The intrinsic, mitochondria-mediated and the extrinsic, extracellular receptor-activated, apoptosis signaling pathways are transduced by activation of various caspases that promote eventual breakdown of cellular proteins, organelles and plasma membrane. […] It was next determined whether apoptosis stimulation by CFM-4 involved activation of caspases 8 or 9 or both. […] The activation of caspases in the presence of CFM-4 was further profiled by utilizing a fluorescence-based quantitative assay as detailed in methods. […]

[1] = system: HBC, colon, prostate, pancreatic cancer, MPM and lymphoma cells; test: MTT cell viability assay, cancer cells; type: cell-based, human
Experimental: Logarithmically growing cells were either untreated or treated with different agents for various time periods. The cells were lysed to prepare protein extracts. IP was carried out by incubating approximately 1 mg of the protein lysate with appropriate antibodies, and the immunoprecipitates or cell lysates were then electrophoresed on 9-12% SDS-polyacrylamide gels, and transferred to nitrocellulose membranes. The membranes were subsequently probed with various antibodies to determine expression/presence of the corresponding proteins. The cell growth inhibition was assessed by using MTT assay. Briefly, MTT (3-[4,5-Dimethylthiazol-2-yl]-2,5diphenyltetrazolium bromide) was dissolved in sterile 1×PBS to prepare a stock solution of 5 mg/ml. The solution was subsequently filtered through 0.2 μm filter and stored at 2-8° C. 4−5×10^2 cells were seeded in 96-well plates. After 72 h incubation with or without different agents, MTT stock solution was added to each culture being assayed to equal one tenth the original culture volume, followed by incubation of cells at 37° C. for another 2 h. At the end of the incubation, the media was removed and cells were treated with 100-200 μl of DMSO to solubilize the dye. The assessment of the live cells was derived by measuring the absorbance of the converted dye at wavelength of 570 nm.
To test whether CFMs that interfere with CARP-1 binding with APC-2 modulate cell growth, HBC, colon, prostate, pancreatic cancer, MPM and lymphoma cells, as well as the immortalized, mammary epithelial MCF-10A cells were utilized. The cells were either treated with vehicle (DMSO) or various doses of the respective compound for a period of 72 h, and percent of live/viable cells for each compound was determined relative to the untreated controls as described in Methods.

SMILES | cell cycle effect (flow cytometry) (cell cycle progression) | apoptosis level (DNA fragmentation ELISA) (apoptosis of HBC cells) | HBC cell growth / viability (MTT) ([1]; HBC cells, 72 h) | cell growth of MPM cells (MTT) ([1]; MPM cells, 72 h) | sensitivity of HBC cells compared with similar dose of CFM-1 and 5 (MTT) ([1]; HBC cells, 20 μM dose)
COc1cccc2c1C(=O)c1c(O)c3c(c(O)c1C2=O)C[C@@](O)(C(=O)CO)C[C@@H]3O[C@H]1C[C@H](N)[C@H](O)[C@H](C)O1 [ADR, adriamycin, reference compound] | induced G2M cell cycle arrest | significantly elevated levels of apoptosis |  |  | 
Cc1cc(Br)cc2c1NC(=O)/C2=C1\SC(=S)NC1=O [CFM-1, (Z)-5-(5-bromo-7-methyl-2-oxoindolin-3-ylidene)-2-thioxothiazolidin-4-one] | induced G2M cell cycle arrest | without significant increase in apoptosis | suppressed viabilities | elicited activity towards select MPM cells | 
O=C1N(Cc2ccccc2Cl)c2ccccc2C12NN=C(c1ccccc1)S2 (stereo not shown) [CFM-4, 1-(2-chlorobenzyl)-5′-phenyl-3′H-spiro[indoline-3,2′-[1,3,4]thiadiazol]-2-one] | induced G2M cell cycle arrest | significantly elevated levels of apoptosis | suppressed viabilities |  | relative increased sensitivity
